Results as given in US20190231771A1, “METHODS FOR TREATMENT AND PREVENTION OF OPIOID INDUCED CONSTIPATION USING ORAL COMPOSITIONS OF METHYLNALTREXONE” (Salix Pharmaceuticals, Ltd., priority 2011, published 2019).
Values joined by “and” are separate entries in the source; they are usually repeats but may differ in a detail not shown here. Equal entries are not always repeated. Where two headings read alike, the source gives them in different places.

Key:
[1] = Comparative bioavailability: single oral 150, 300, 450 mg MNTX tablets vs 12 mg SC injection, crossover; type: in vivo, human; details: for t1/2 / half-life: harmonic mean; for bioavailability: arithmetic mean AUC0-∞, read-out: dose-normalized bioavailability of oral MNTX relative to SC MNTX
Description: The oral dosage levels and formulation of MNTX evaluated here were the same as those in a phase 3 study of oral MNTX tablets, with the exception of a nonfunctional coating on the MNTX tablets. […] The pharmacokinetics of the uncoated tablet used in the phase 3 study and the coated tablets used in the current study were compared in a separate study. […] A single-dose pharmacokinetic profile of oral MNTX tablets was also planned for evaluation in this study.
Presented herein is a randomized, open-label, crossover study consisting of 6 dosing sequences, each with 2 dosing periods; the dosing periods were separated by 7 days. All subjects were housed in the clinical research unit from Day −1 through Day 14 and were discharged on Day 15, which concluded their participation in the study. Prior to receiving study drug on Days 1 and 8, the subjects underwent an overnight fast of at least 10 hours, beginning on Days 0 and 7, respectively. In both dosing periods, the subjects received a single oral dose of MNTX tablets (150, 300, or 450 mg) or a single SC injection of MNTX (12 mg). The dosing was conducted in a crossover fashion (e.g., a tablet was administered at one visit and a SC injection was administered at the alternate visit). The strength of oral methylnaltrexone dose (150 mg, 300 mg, or 450 mg) and the dosing sequence (Day 1: oral tablet; Day 8: SC injection vs the alternate dosing order) for each subject were determined by random assignment. Each oral dose was administered with 240 mL of room temperature drinking water. The subjects were instructed to drink all of the water and were told to swallow the tablets whole (e.g., not to chew, divide, or crush them). Blood samples were collected for pharmacokinetic analyses prior to dosing (approximately 1 hour prior) on Day 1, and at 0.25, 0.5, 1, 2, 4, 6, 8, 10, 12, 16, 24, 36, 48, 72, 96, 120, 144, and 168 hours after dosing on Days 1 and 8.
Each tablet contained 150 mg of the active pharmaceutical ingredient, MNTX.
Each injection vial contained 12 mg of the active pharmaceutical ingredient, MNTX, per 0.6 mL of solution (i.e., 20 mg/mL solution).
In this study, all 48 enrolled subjects received study drug in each of the 2 study periods and were included in the safety and pharmacokinetic analyses.
This was a phase 1, randomized, open-label, crossover study consisting of 6 dosing sequences, each with 2 dosing periods. In both dosing periods, the subjects received a single oral dose of MNTX tablets (150, 300, or 450 mg) or a single SC injection of MNTX (12 mg). The dosing was conducted in a crossover fashion (i.e., a tablet was administered at one visit and a SC injection was administered at the alternate visit).
Forty-eight subjects were enrolled and 47 subjects (97.9%) completed the study; one subject discontinued due to personal reasons after receiving study drug in both study periods. The subjects received study drug in accordance with the randomization schedule; specifically, 16 subjects each received a single oral dose of 150, 300, and 450 mg MNTX tablets and all 48 subjects received a single 12 mg SC injection of MNTX.

[2] = Study B: single and multiple dose pharmacokinetics after 20-minute intravenous infusion of 24 mg methylnaltrexone; type: in vivo, human; details: 24 mg IV infusion; for AUC(0-inf) / Cmax: iv, 24 mg; for Cmax: read-out: Cmax
Experimental: Presented herein is a clinical pharmacokinetics study, Study C, as well as Studies A and B. Study A investigated the single and multiple dose pharmacokinetics of methylnaltrexone (MNTX) and its metabolites (M2: methylnaltrexone sulfate; M4: 6α-methylnaltrexol; and M5: 6β-methylnaltrexol) following the subcutaneous administration of 12 mg methylnaltrexone. In Study B, the single and multiple dose pharmacokinetics of methylnaltrexone (MNTX) and its metabolites (M2, M4, and M5) were examined following a 20-minute short intravenous infusion of 24 mg of methylnaltrexone (MNTX).
Pharmacokinetic parameters included Cmax, AUCt, AUCinf, tmax, t1/2, % Re24, accumulation factor (R) as defined below and metabolite/parent drug ratio.
R=Accumulation Factor(based on AUC0-24(ng·h/mL):Day 7 AUC AUC0-24/Day 1 AUC0-24
Metabolite-Parent Drug ratio(based on ng·h/mL)(%)=100*(Metabolite AUC24/MNTX AUC24)
Note: AUCinf was used in place of AUC AUC0-24 for R and Metabolite-Parent Drug ratio computations following IV administration.

[3] = MNTX 12 mg SC Injection, single dose, mean
[4] = MNTX 150 mg Tablet vs 12 mg SC Injection
[5] = MNTX 150 mg Tablet, single oral dose, mean
[6] = MNTX 300 mg Tablet, single oral dose, mean
[7] = MNTX 450 mg Tablet, single oral dose, mean

C[N@+]1(CC2CC2)CC[C@]23c4c5ccc(O)c4O[C@H]2C(=O)CC[C@@]3(O)[C@H]1C5.[Br-] [MNTX, (R)—N-(cyclopropylmethyl) noroxymorphone methobromide]
t1/2 ([1]; MNTX 12 mg SC Injection, single dose): 9.16 h
AUC0-∞ [1, 3]: 269.09 ng·h/mL
CL/F [1, 3]: 45698.7 mL/h and 45698.71 mL/h
Cmax [1, 3]: 174.01 ng/mL
AUC0-t GMR, tablet/injection × 100 [1, 4]: 35.61%
AUC0-∞ GMR, tablet/injection × 100 [1, 4]: 36.41%
Cmax GMR, tablet/injection × 100 [1, 4]: 5.779%
t1/2 ([1]; MNTX 150 mg Tablet, single oral dose): 13.95 h
AUC0-∞ [1, 5]: 106.87 ng·h/mL
CL/F [1, 5]: 1735472.22 mL/h
Cmax [1, 5]: 13.22 ng/mL
AUC0-t GMR, tablet/injection × 100 ([1]; MNTX 300 mg Tablet vs 12 mg SC Injection): 74.73%
t1/2 ([1]; MNTX 300 mg Tablet, single oral dose): 14.16 h
AUC0-∞ [1, 6]: 231.24 ng·h/mL
CL/F [1, 6]: 1564638.99 mL/h
Cmax [1, 6]: 26.22 ng/mL
AUC0-t GMR, tablet/injection × 100 ([1]; MNTX 450 mg Tablet vs 12 mg SC Injection): 121.4%
t1/2 ([1]; MNTX 450 mg Tablet, single oral dose): 16.57 h
AUC0-∞ [1, 7]: 373.32 ng·h/mL
CL/F [1, 7]: 1664001.3 mL/h and 1664001.28 mL/h
Cmax [1, 7]: 39.89 ng/mL
AUC(0-t) ([1]; human, plasma, oral, 150 mg, MNTX 150 mg Tablet, read-out: AUC0-t, Geometric LSM): 94.2 ng·h/mL
AUC(0-inf) ([1]; human, plasma, oral, 150 mg, MNTX 150 mg Tablet, read-out: AUC0-∞, Geometric LSM): 96.7 ng·h/mL
Cmax ([1]; human, plasma, oral, 150 mg, MNTX 150 mg Tablet, read-out: Cmax, Geometric LSM): 9.47 ng/mL
AUC(0-t) ([1]; human, plasma, oral, 300 mg, MNTX 300 mg Tablet, read-out: AUC0-t, Geometric LSM): 198 ng·h/mL
AUC(0-inf) ([1]; human, plasma, oral, 300 mg, MNTX 300 mg Tablet, read-out: AUC0-∞, Geometric LSM): 200 ng·h/mL
Cmax ([1]; human, plasma, oral, 300 mg, MNTX 300 mg Tablet, read-out: Cmax, Geometric LSM): 21.8 ng/mL
AUC(0-t) ([1]; human, plasma, oral, 450 mg, MNTX 450 mg Tablet, read-out: AUC0-t, Geometric LSM): 321 ng·h/mL
AUC(0-inf) ([1]; human, plasma, oral, 450 mg, MNTX 450 mg Tablet, read-out: AUC0-∞, Geometric LSM): 327 ng·h/mL
Cmax ([1]; human, plasma, oral, 450 mg, MNTX 450 mg Tablet, read-out: Cmax, Geometric LSM): 32.7 ng/mL
half-life ([1]; human, plasma, po, 150 mg, MNTX 150 mg Tablet, single oral dose): 14 h
AUC(0-t) ([1]; human, plasma, po, 150 mg, MNTX 150 mg Tablet, single oral dose, mean, read-out: AUC0-t): 105 ng·h/mL
AUC(0-inf) ([1]; human, plasma, po, 150 mg, MNTX 150 mg Tablet, single oral dose, mean, read-out: AUC0-∞): 107 ng·h/mL
Cmax ([1]; human, plasma, po, 150 mg, MNTX 150 mg Tablet, single oral dose, mean, read-out: Cmax): 13.2 ng/mL
half-life ([1]; human, plasma, po, 300 mg, MNTX 300 mg Tablet, single oral dose): 14.2 h
AUC(0-t) ([1]; human, plasma, po, 300 mg, MNTX 300 mg Tablet, single oral dose, mean, read-out: AUC0-t): 229 ng·h/mL
AUC(0-inf) ([1]; human, plasma, po, 300 mg, MNTX 300 mg Tablet, single oral dose, mean, read-out: AUC0-∞): 231 ng·h/mL
Cmax ([1]; human, plasma, po, 300 mg, MNTX 300 mg Tablet, single oral dose, mean, read-out: Cmax): 26.2 ng/mL
half-life ([1]; human, plasma, po, 450 mg, MNTX 450 mg Tablet, single oral dose): 16.6 h
AUC(0-t) ([1]; human, plasma, po, 450 mg, MNTX 450 mg Tablet, single oral dose, mean, read-out: AUC0-t): 367 ng·h/mL
AUC(0-inf) ([1]; human, plasma, po, 450 mg, MNTX 450 mg Tablet, single oral dose, mean, read-out: AUC0-∞): 373 ng·h/mL
Cmax ([1]; human, plasma, po, 450 mg, MNTX 450 mg Tablet, single oral dose, mean, read-out: Cmax): 39.9 ng/mL
half-life ([1]; human, plasma, sc, 12 mg, MNTX 12 mg SC Injection, single dose): 9.2 h
AUC(0-t) ([1]; human, plasma, sc, 12 mg, MNTX 12 mg SC Injection, single dose, mean, read-out: AUC0-t): 268 ng·h/mL
AUC(0-inf) ([1]; human, plasma, sc, 12 mg, MNTX 12 mg SC Injection, single dose, mean, read-out: AUC0-∞): 269 ng·h/mL
Cmax ([1]; human, plasma, sc, 12 mg, MNTX 12 mg SC Injection, single dose, mean, read-out: Cmax): 174 ng/mL
AUC(0-t) ([1]; human, plasma, sc, 12 mg, MNTX 12 mg SC Injection, read-out: AUC0-t, Geometric LSM): 264 ng·h/mL
AUC(0-inf) ([1]; human, plasma, sc, 12 mg, MNTX 12 mg SC Injection, read-out: AUC0-∞, Geometric LSM): 266 ng·h/mL
Cmax ([1]; human, plasma, sc, 12 mg, MNTX 12 mg SC Injection, read-out: Cmax, Geometric LSM): 164 ng/mL
Tmax ([1]; human, plasma, 12 mg SC injection, read-out: median Tmax (converted)): 0.25 h
Tmax ([1]; human, plasma, MNTX 150 mg Tablet, single oral dose, median, read-out: Tmax): 2 h
Tmax ([1]; human, plasma, MNTX 300 mg Tablet, single oral dose, median, read-out: Tmax): 1.5 h
Tmax ([1]; human, plasma, MNTX 450 mg Tablet, single oral dose, median, read-out: Tmax): 2 h
bioavailability ([1]; human, plasma, oral 150 mg vs 12 mg SC): 3.2%
bioavailability ([1]; human, plasma, oral 300 mg vs 12 mg SC): 3.4%
bioavailability ([1]; human, plasma, oral 450 mg vs 12 mg SC): 3.7%
Tmax ([1]; human, plasma, oral MNTX tablets 150 mg to 450 mg, read-out: median Tmax, range over the oral doses): 1.5 to 2 h
tolerability ([1]; oral 150, 300, 450 mg tablets and 12 mg SC injection, healthy volunteers): well tolerated
Tmax shorter following SC MNTX 12 mg versus oral MNTX 150, 300, and 450 mg ([1]; single doses): 6- to 8 fold
mean AUC0-∞ following SC MNTX 12 mg higher versus oral MNTX 300 mg ([1]; single doses): 16%
mean AUC0-∞ following SC MNTX 12 mg lower versus oral MNTX 450 mg ([1]; single doses): 28%
t1/2 shorter following SC MNTX 12 mg versus oral MNTX 150, 300, and 450 mg ([1]; single doses): 5 to 7 h
R (IV), accumulation factor ([2]; AUCinf used): 1.17
AUC(0-inf) ([2]; human, in vivo, Day 1, mean): 396 ng·h/mL
Cmax ([2]; human, in vivo, Day 1, mean): 533 ng/mL
AUC(0-inf) ([2]; human, in vivo, Day 7, mean): 375 ng·h/mL
Cmax ([2]; human, in vivo, Day 7, mean): 520 ng/mL
half-life ([2]; human, in vivo, day not given): 10.8 h
AUC(0-t) ([2]; human, in vivo, day not given, mean, read-out: AUC0-6): 326 ng·h/mL
